According to patent US7144889B2, “Triarylimidazoles” (Hoffman-La Roche Inc., priority 2003, dated 2006):

Molecular target: T1, c-met (Homo sapiens, UniProt P08581)
T1 construct: endogenous in cells; host or cells: HT29 (ATCC HTB-38), human colon adenocarcinoma
Test: C-met Autoactivation Kinase Assay (AKA), ELISA type assay on HT29 cell lysate
Assay type: biochemical
Conditions: phosphorylation of c-met from HT29 lysate, 40 μM ATP
Text: C-met Autoactivation Kinase Assay (AKA)
C-met is a typical tyrosine kinase which is involved in metastasis, proliferation/apoptosis and angiogenesis of tumors. The assay is an ELISA type assay measuring the phosphorylation of c-met using a phospho-tyrosine specific antibody.
Cell lysate of human colon adenocarcinoma HT29 known for its high content of c-met is bound to the wells of a microtiterplate (MTP) via an anti-hHGF receptor antibody (anti-hHGFR). ATP-phosphorylation of c-met is detected in presence or absence of the test compounds by using a phospho-tyrosine mouse IgG and a POD labeled goat anti-mouse IgG detection system. Using the classical POD substrate TMB, an absorption at 450 nm/620 nm is used to calculate enzymatic activity.
Plates: 96-well polystyrene plates (NUNC) streptavidin-coated microtiter plates Cell line/Lysate: HT29 (ATCC HTB-38), human colon adenocarcinoma (confluence: 2.5×10^5 cells/cm^2) are washed with PBS and incubated with Lysis buffer for 10 min on ice. Supernatent is collected and diluted with TBS. Lysate is shockfrozen in liquid nitrogen and stored at −80° C.)
Reagents (all working solutions are kept at 4° C., unless stated otherwise): • anti-hHGFR detection stock solution: 50 μg/ml (R&D Systems, Cat.No. BAF 358) antibody final conc.: 1 μg/ml • p-Tyr (PY99) mouse stock solution: 200 μg/ml (Santa Cruz Biotechnology, monoclonal IgG2b Cat.No. SC-7020) final conc.: 0.2 μg/ml • goat-anti-mouse IgG: 2 ml (BIO RAD, Cat.No. 170–6516) • (H+L)-HRP Conjugate; final conc.: 1:2000 • Blocking Reagent: Roche Diagnostics GmbH, Cat.No.1 112589 for ELISA diluted 1:10 in TBS • ATP: Adenosine-5′-triphosphate, stock solution 10 mM, stock solution 10 mM (Roche Diagnostics GmbH, Cat.No. 127531) final conc.: 40 μM • TBS: Tris-buffered saline, 50 mM TRIS pH 7.5 (Roche Diagnostics GmbH, Cat.No. 708976), 150 mM NaCl (SIGMA, Cat.No. S-3014) • Wash buffer TBS-T: Tris-buffered saline, 50 mM TRIS pH 7.5 150 mM NaCl, containing 0.5% Tween20 • Kinase buffer: Tris-buffered saline, 50 mM TRIS pH 7.5, 100 mM NaCl, 60 mM MgCl2 (SIGMA Chemical Company, Cat.No. M-1028) • Lysis buffer: 50 mM TRIS pH 7.5 containing 1% Nonidet P40 (Roche Diagnostics GmbH, Cat.No.1754599) 0.5 % Deoxycholic acid (SIGMA Chemical Company, Cat.No. D-6750) final conc.: 1 mM 1 mM PMSF stock solution 70 mM (Roche Diagnostics GmbH, Cat.No.837091 40 μl/ml Complete (Roche Diagnostics GmbH, Cat.No. 1836145) Final conc.: 40 μ/ml • TMB: Tetramethylbenzidine (Intergen Company, Cat.No. 91000) • Samples: 10 mM in DMSO (stored at −20° C.), thawed at room temperature Procedure: […]

T1 sequence (P08581 25-1390): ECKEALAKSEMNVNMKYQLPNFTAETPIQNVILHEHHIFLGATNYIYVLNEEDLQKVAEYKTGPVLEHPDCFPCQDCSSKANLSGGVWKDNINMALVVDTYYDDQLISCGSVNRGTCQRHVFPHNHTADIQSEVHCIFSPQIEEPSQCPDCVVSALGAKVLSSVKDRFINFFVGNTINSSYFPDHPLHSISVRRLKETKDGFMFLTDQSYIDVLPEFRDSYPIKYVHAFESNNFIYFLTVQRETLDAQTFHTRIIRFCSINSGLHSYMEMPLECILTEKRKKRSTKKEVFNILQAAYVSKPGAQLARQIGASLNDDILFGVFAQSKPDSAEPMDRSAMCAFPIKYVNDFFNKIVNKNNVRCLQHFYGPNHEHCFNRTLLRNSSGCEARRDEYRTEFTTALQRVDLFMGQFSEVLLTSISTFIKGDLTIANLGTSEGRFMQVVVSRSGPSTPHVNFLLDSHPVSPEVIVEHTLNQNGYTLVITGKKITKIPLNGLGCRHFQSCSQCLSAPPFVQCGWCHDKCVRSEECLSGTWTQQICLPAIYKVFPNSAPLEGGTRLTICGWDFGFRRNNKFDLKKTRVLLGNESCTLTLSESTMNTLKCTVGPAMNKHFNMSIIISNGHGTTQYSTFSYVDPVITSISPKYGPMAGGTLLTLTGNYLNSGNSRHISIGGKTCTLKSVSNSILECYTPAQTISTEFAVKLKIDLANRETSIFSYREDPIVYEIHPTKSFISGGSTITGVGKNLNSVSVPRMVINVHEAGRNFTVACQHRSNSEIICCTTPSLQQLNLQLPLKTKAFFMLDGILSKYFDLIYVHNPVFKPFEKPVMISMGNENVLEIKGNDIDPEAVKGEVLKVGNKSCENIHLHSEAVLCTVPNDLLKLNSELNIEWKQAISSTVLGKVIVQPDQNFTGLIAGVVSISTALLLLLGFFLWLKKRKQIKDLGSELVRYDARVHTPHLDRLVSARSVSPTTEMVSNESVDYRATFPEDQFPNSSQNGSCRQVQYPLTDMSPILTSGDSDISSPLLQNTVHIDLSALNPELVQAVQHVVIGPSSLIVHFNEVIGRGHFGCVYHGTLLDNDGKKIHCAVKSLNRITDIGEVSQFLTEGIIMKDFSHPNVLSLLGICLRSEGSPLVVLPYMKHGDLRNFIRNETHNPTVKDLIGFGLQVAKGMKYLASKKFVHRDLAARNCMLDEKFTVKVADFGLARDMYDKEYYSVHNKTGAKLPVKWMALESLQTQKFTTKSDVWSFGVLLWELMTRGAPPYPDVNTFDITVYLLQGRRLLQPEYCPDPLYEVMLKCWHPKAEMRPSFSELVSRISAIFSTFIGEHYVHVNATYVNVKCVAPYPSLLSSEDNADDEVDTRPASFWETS

Compared with `OCCCNc1nccc(-c2[nH]c(-c3c(Cl)cc(OCCO)cc3Cl)nc2-c2cccc(OCc3cccnc3)c2)n1` [Example H2, 2-(2,6-dichloro-4-[2-hydroxyethoxy]phenyl)-4-(3-(3-pyridinylmethyloxy)phenyl)-5-(2-[3-hydroxypropylamino]pyrimidin-4-yl)-N-1H-imidazole], `OCCCNc1nccc(-c2[nH]c(-c3c(Cl)cc(OCCO)cc3Cl)nc2-c2cccc(OCc3ccncc3)c2)n1` [Example H3, 2-(2,6-dichloro-4-[2-hydroxyethoxy]phenyl)-4-(3-(4-pyridinylmethyloxy)phenyl)-5-(2-[3-hydroxypropylamino]pyrimidin-4-yl)-N-1H-imidazole] is 1.7-fold higher in IC50: 32 nM for the first, 54 nM for the second. The first is the more potent here.

`OCCCNc1nccc(-c2[nH]c(-c3c(Cl)cc(OCCO)cc3Cl)nc2-c2cccc(OCc3ccccn3)c2)n1` [Example H1, 2-(2,6-dichloro-4-[2-hydroxyethoxy]phenyl)-4-(3-(2-pyridinylmethyloxy)phenyl)-5-(2-[3-hydroxypropylamino]pyrimidin-4-yl)-N-1H-imidazole] and `OCCCNc1nccc(-c2[nH]c(-c3c(Cl)cncc3Cl)nc2-c2cccc(OCc3ccccc3)c2)n1` [Example H4, 2-(3,5-dichloropyridin-4-yl)-4-(3-benzyloxyphenyl)-5-(2-[3-hydroxypropyl-amino]pyrimidin-4-yl)-N-1H-imidazole] are within 1.5-fold of each other in IC50: 22 nM for the first, 23 nM for the second.
